Data reported in patent US8471063B2, “Michael systems as transglutaminase inhibitors” (Zedira GmbH, priority 2006, dated 2013).
Where two headings read alike, the source gives them in different places. *1 amine or outer side, *2 acyl side, *3 side chain or, on linkers, in order; H or OH if unused. Where a SMILES comes first, the peptide text is derived from it. [ ]: non-standard residue; d: D form. X3 = O=C([C@H](CC/C=C/[N+](=O)[O-])N[*:1])[*:2]; Phe(2,4-Cl2) = N[C@@H](Cc1ccc(Cl)cc1Cl)C(=O)O; X1 = CN(C)C(=O)/C=C/CC[C@H](N[*:1])C(=O)[*:2]; X4 = O=C([C@@H]1C(O)c2ccccc2CN1[*:1])[*:2]; hCit = NC(=O)NCCCC[C@H](N)C(=O)O; Aib = CC(C)(N)C(=O)O

Experiments:
Type in all cases: biochemical
TG3 = biological target: T1, TG3 (Homo sapiens, UniProt Q08188); test: Transglutaminase inhibition, IC50 at TG3
T1 sequence (Q08188 1-693): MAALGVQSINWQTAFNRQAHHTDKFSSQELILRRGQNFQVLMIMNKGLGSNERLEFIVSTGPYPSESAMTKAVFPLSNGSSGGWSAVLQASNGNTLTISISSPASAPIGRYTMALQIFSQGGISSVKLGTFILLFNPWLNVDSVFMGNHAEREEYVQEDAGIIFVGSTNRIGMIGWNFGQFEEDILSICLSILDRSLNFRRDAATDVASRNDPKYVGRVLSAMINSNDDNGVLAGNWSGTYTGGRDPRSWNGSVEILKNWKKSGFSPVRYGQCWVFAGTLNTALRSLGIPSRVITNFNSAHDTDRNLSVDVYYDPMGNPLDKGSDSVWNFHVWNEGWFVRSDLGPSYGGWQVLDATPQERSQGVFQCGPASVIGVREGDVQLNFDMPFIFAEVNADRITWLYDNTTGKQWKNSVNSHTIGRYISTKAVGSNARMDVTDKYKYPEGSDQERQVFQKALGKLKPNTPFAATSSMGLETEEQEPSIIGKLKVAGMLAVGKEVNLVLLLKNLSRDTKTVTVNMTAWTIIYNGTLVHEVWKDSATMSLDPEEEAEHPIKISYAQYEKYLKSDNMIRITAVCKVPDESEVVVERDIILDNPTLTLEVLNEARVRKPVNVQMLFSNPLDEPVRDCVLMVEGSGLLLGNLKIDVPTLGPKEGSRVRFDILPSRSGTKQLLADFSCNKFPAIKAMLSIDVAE

TG6 = biological target: T2, TG6 (Homo sapiens, UniProt O95932); test: Transglutaminase inhibition, IC50 at TG6
T2 construct: His6 (N); made in house; host or cells: E. coli BL21 (DE3)
T2 sequence (O95932 1-706): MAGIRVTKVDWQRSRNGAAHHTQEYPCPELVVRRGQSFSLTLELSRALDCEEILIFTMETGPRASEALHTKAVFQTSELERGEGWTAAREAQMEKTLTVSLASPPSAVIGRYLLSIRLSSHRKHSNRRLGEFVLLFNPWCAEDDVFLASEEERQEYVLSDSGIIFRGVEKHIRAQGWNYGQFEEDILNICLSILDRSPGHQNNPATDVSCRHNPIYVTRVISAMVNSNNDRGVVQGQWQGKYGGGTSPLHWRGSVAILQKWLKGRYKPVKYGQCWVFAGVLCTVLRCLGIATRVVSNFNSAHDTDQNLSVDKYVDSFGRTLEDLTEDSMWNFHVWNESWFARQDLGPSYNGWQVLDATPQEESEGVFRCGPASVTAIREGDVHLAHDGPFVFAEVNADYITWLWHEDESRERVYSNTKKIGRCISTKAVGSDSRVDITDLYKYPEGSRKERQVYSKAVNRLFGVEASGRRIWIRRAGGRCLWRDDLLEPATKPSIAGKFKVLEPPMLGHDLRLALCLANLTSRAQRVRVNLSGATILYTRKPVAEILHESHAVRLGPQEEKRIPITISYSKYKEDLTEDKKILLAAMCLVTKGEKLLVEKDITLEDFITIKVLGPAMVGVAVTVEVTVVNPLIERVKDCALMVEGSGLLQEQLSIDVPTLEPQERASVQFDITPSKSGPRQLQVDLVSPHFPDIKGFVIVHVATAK
Protocol: (§1) The genes encoding for TG6 and TG7 were amplified from TG6-cDNA and TG7-cDNA, respectively, with PCR according to standard procedures (both state-of-the-art according to U.S. Pat. No. 7,052,890). Through the primers used a NdeI restriction site and six histidine codons were inserted at the 5′ end and a BgIII restriction site (TG6) and a HindIII restriction site (TG7) at the 3′ end.
(§2) The Tg6 PCR product was treated with the restriction endonucleases NdeI and BgIII. In the NdeI and BamH I restricted vector pET 3a was inserted. The Tg7 PCR product was treated with the restriction endonucleases NdeI and HindIII. and in the likewise restricted vector pET 28b was inserted.
(§3) The E. coli strain BL21 (DE3) (Novagen, Darmstadt) was transformed with the obtained plasmids. A culture of one strain each was induced with IPTG and harvested. After cell disruption under high pressure homogenisation the disrupts were centrifuged and the supernatants were purified via metal ion affinity chromatography on HiTrap chelating HP columns (GE-Helathcare). The purified proteins TG6 and TG7 were analyzed by SDS-PAGE with Coomassie staining. All procedures used for the production of TG6 and TG7 are well known to the one skilled in the art.

TG7 = biological target: T3, TG7 (Homo sapiens, UniProt Q96PF1); test: Transglutaminase inhibition, IC50 at TG7
T3 construct: His6 (N); made in house; host or cells: E. coli BL21 (DE3)
T3 sequence (Q96PF1 1-710): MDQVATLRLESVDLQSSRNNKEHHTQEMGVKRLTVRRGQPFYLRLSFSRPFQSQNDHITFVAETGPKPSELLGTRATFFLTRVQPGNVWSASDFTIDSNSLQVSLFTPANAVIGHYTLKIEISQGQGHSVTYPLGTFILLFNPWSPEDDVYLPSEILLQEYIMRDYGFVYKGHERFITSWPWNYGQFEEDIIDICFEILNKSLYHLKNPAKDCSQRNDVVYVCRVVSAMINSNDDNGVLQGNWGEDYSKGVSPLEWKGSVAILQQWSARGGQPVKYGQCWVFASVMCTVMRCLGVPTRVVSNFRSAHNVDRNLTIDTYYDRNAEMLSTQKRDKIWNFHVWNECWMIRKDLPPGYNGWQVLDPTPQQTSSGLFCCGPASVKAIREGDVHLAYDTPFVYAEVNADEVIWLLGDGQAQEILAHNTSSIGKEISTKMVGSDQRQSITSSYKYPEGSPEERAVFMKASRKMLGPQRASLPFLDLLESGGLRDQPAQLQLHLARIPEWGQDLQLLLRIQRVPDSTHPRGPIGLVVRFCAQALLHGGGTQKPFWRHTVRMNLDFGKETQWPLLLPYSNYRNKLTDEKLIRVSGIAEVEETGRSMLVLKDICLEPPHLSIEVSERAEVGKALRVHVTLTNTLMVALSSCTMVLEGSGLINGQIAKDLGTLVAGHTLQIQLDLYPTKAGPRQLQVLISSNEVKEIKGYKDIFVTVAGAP
Protocol: as §1, §2, §3

[1] = Table 2, read-out: IC50 value [TG3]
[2] = Table 2, read-out: IC50 value [TG6]
[3] = Table 2, read-out: IC50 value [TG7]

IC50 (TG3; [1]) [µM]	IC50 (TG6; [2]) [µM]	IC50 (TG7; [3]) [µM]	SMILES	IC50 (TG3) [µM]	IC50 (TG6) [µM]	IC50 (TG7) [µM]
> 100	4	46	CC[C@H](C)[C@H](NC(=O)[C@H](CCC(N)=O)NC(=O)[C@H](CC/C=C/C(=O)N(C)C)NC(=O)[C@H](Cc1ccc(Cl)cc1Cl)NC(=O)C(C)(C)NC(C)=O)C(=O)N[C@H](C(=O)O)C(C)C [Compound 3.2.13] (Ac-[Aib][Phe(2,4-Cl2)][X1]QIV-OH)	–	–	–
2.3	> 100	> 100	CC(=O)N[C@@H](CCC(N)=O)C(=O)N[C@@H](CCC(N)=O)C(=O)N[C@@H](CC/C=C/[N+](=O)[O-])C(=O)N[C@H](C(=O)N[C@@H](CCCCNC(N)=O)C(=O)N[C@@H](CCC(N)=O)C(=O)N1Cc2ccccc2C(O)[C@H]1C(N)=O)C(C)C (stereo partly drawn) [Compound 3.2.14] (Ac-QQ[X3]V[hCit]Q[X4]-NH2)	–	–	–
–	–	–	CC(=O)N[C@@H](CCl)C(=O)N1CSC[C@H]1C(=O)N[C@@H](CC/C=C/C(=O)c1ccc([N+](=O)[O-])cc1)C(=O)N[C@@H](CCC(N)=O)C(=O)N[C@@H](CC1CCCCC1)C(=O)Nc1ccc(C(=O)O)cc1 [Compound 3.2.16]	48	2	3.4
